Measurements taken from patent US7232904B2, “Crystal of arylethenesulfonamide derivative and preparation process thereof” (Astellas Pharma Inc., priority 2001, dated 2007).

Columns and labels:
[1] = heat stability of crystals; format: physicochemical; conditions: high melting point
[2] = hygroscopicity of crystals (FIGS. 10 to 12); format: physicochemical; conditions: for moisture absorbed / moisture absorbed, corresponding moles of water: extent of moisture absorption with increase of humidity; for humidity above which moisture is absorbed: humidity exceeded before moisture absorption
Excerpt: Also, FIGS. 10 to 12 show the hygroscopicity of the three kinds of novel crystals of the potassium salt of Compound A of the invention.

[3] = tested on: ET receptors, particularly an ETA receptor; conditions: competitively inhibits binding to ET receptors; cited from earlier work
[4] = preservation stability in a reagent bottle; format: physicochemical; conditions: normal temperature, atmospheric pressure
Excerpt: Additionally, the α-type crystal, β-type crystal and γ-type crystal of the potassium salt of Compound A of the invention are morphologically pure. […] Moreover, since it is hardly electrified and is excellent in fluidity, it has advantages such that works are easy in adjusting solid formulations such as powders, granules, tablets, and capsules.

[5] = listed as γ-type crystal of the potassium salt of Compound A
[6] = listed as β-type crystal of the potassium salt of Compound A
[7] = listed as α-type crystal of the potassium salt of Compound A

SMILES: COc1ccccc1Oc1c(NS(=O)(=O)/C=C/c2ccccc2)nc(-c2ncccn2)nc1OC.[K] [γ-type crystal]
- heat stability (in words) [1]: excellent in heat stability
- moisture absorbed [2, 5]: about 1%
- moisture absorbed, corresponding moles of water [2, 5]: 0.3 moles of water

SMILES: COc1ccccc1Oc1c(NS(=O)(=O)/C=C/c2ccccc2)nc(-c2ncccn2)nc1OC.[K] [potassium salt of Compound A]
- affinity with ET receptors [3]: high affinity

SMILES: COc1ccccc1Oc1c(NS(=O)(=O)/C=C/c2ccccc2)nc(-c2ncccn2)nc1OC.[K] [β-type crystal]
- heat stability (in words) [1]: excellent in heat stability
- moisture absorbed [2, 6]: about 4%
- moisture absorbed, corresponding moles of water [2, 6]: 1.2 moles of water
- humidity above which moisture is absorbed [2, 6]: exceeded 45%

SMILES: COc1ccccc1Oc1c(NS(=O)(=O)/C=C/c2ccccc2)nc(-c2ncccn2)nc1OC.[K] [α-type crystal]
- stable in the preservation state [4]: over 2 years
- moisture absorbed [2, 7]: about 6%
- moisture absorbed, corresponding moles of water [2, 7]: 1.8 moles of water
- humidity above which moisture is absorbed [2, 7]: exceeded 65%
